Experimental data: ChEMBL document CHEMBL1128124, “Inhibitors of acyl-CoA: Cholesterol O-acyl transferase (ACAT) as hypocholesterolemic agents. 13. Design, synthesis and biological evaluation of tetrazole anilides as potent inhibitors of ACAT in vitro and hypocholesterolemic agents in vivo” (Bioorg Med Chem Lett, 1995)

What was measured:
Rattus norvegicus [1] = test: Percent change in total cholesterol in cholic acid (0.5%)-cholesterol (1.5%)-peanut oil (5.5%)-fed rats after administration of 3 mg/kg for 7 days was determined; format: functional
Rattus norvegicus [2] = test: Percent change in total cholesterol in cholic acid (0.5%)-cholesterol (1.5%)-peanut oil (5.5%)-fed rats after administration of 3 mg/kg was determined; format: functional
Rattus norvegicus [3] = test: Percent change in total cholesterol in cholic acid (0.5%)-cholesterol (1.5%)-peanut oil (5.5%)-fed rats after administration of 30 mg/kg was determined; format: functional
Rattus norvegicus [4] = test: Percent change in total cholesterol in cholic acid (0.5%)-cholesterol (1.5%)-peanut oil (5.5%)-fed rats after administration of 10 mg/kg for 7 days was determined; format: functional
Rattus norvegicus [5] = test: Percent change in total cholesterol in cholic acid (0.5%)-cholesterol (1.5%)-peanut oil (5.5%)-fed rats after administration of 30 mg/kg was determined.; format: functional
Rattus norvegicus [6] = test: Percent change in total cholesterol in cholic acid (0.5%)-cholesterol (1.5%)-peanut oil (5.5%)-fed rats after administration of 3 mg/kg for 7 days was determined.; format: functional
Rattus norvegicus [7] = test: Percent change in total cholesterol in cholic acid (0.5%)-cholesterol (1.5%)-peanut oil (5.5%)-fed rats after administration of 3 mg/kg was determined.; format: functional
Rattus norvegicus [8] = test: Percent change in total cholesterol in cholic acid (0.5%)-cholesterol (1.5%)-peanut oil (5.5%)-fed rats after administration of 10 mg/kg for 7 days was determined.; format: functional
Rattus norvegicus [9] = test: Percent change in total cholesterol in cholic acid (0.5%)-cholesterol (1.5%)-peanut oil (5.5%)-fed rats after administration of 30 mg/kg for 7 days was determined; format: functional
[10] = target: T1, Sterol O-acyltransferase 1 (Rattus norvegicus, UniProt O70536); test: Concentration required for the in vitro inhibition of Acyl coenzyme A:cholesterol acyltransferase (ACAT) in liver microsomes isolated from cholesterol-fed rats was determined; parameters: species or system Microsome
T1 sequence (O70536 whole entry): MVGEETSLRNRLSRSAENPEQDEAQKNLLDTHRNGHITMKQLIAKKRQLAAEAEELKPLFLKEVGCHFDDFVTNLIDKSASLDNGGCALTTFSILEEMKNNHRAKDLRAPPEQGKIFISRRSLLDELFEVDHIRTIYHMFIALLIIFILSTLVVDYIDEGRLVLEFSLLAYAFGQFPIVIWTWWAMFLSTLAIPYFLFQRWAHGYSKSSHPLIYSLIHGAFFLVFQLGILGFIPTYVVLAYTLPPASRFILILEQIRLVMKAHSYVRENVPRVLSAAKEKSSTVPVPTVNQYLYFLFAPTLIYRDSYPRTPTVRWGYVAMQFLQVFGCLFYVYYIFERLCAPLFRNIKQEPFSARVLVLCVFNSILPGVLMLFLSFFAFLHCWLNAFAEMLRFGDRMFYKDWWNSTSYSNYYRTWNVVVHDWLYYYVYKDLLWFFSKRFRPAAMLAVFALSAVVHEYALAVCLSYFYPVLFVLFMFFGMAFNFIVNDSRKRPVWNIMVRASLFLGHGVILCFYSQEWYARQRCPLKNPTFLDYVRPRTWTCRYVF

## CCCCCCCCCCCCn1nnc(C(C(=O)Nc2c(OC)cc(OC)cc2OC)c2ccccc2)n1 (single isomer, unassigned; (+))
Rattus norvegicus [1]; 3 mg/kg
  Change TC: -55%
Rattus norvegicus [2]; 3 mg/kg
  Change TC: -66%
Rattus norvegicus [3]; 30 mg/kg
  Change TC: -68%
Rattus norvegicus [4]; 10 mg/kg
  Change TC: -60%

## CCCCCCCCCCCCn1nnnc1C(C(=O)Nc1c(OC)cc(OC)cc1OC)c1ccccc1 (stereo not drawn)
Rattus norvegicus [5]
  Change TC: -38%

## CCCCCCCCCCCCn1nnc(C(C(=O)Nc2c(OC)cc(OC)cc2OC)c2ccccc2)n1 (stereo not drawn)
Rattus norvegicus [6]
  Change TC: -23%
Rattus norvegicus [7]
  Change TC: -65%
Rattus norvegicus [8]
  Change TC: -59%
Rattus norvegicus [5]
  Change TC: -63%

## CCCCCCCCCCCCn1nnnc1C(C(=O)Nc1c(C(C)C)cccc1C(C)C)c1ccccc1 (stereo not drawn)
Rattus norvegicus [3]
  Change TC: -44%
Rattus norvegicus [9]
  Change TC: -24%

## CCCCCCCCCCCCn1nnc(C(C(=O)Nc2c(C(C)C)cccc2C(C)C)c2ccccc2)n1 (stereo not drawn)
Rattus norvegicus [2]
  Change TC: -46%
Rattus norvegicus [3]
  Change TC: -49%
Rattus norvegicus [9]
  Change TC: -38%

## CCCCCCCCCCC(C)(C)C(=O)Nc1c(OC)cc(OC)cc1OC [CL-976]
Rattus norvegicus [1]
  Change TC: -12%
Rattus norvegicus [2]
  Change TC: -15%
Rattus norvegicus [3]
  Change TC: -57%
Rattus norvegicus [4]
  Change TC: -17%

## CCCCCCCCCCCCn1nnc(C(C(=O)Nc2c(OC)cc(OC)cc2OC)c2ccccc2)n1 (stereo in doubt; 8-(-))
[10]
  IC50: 0.33 µM
Rattus norvegicus [1]; 3 mg/kg
  Change TC: 7%
Rattus norvegicus [2]; 3 mg/kg
  Change TC: -47%
Rattus norvegicus [3]; 30 mg/kg
  Change TC: -64%
Rattus norvegicus [4]; 10 mg/kg
  Change TC: -11%
